Source: patent publication US20250375413A1, “METHOD OF INHIBITING LIPASE ACTIVITY IN AGING” (The Regents of the University of California, priority 2024, published 2025)
Entries after “also recorded” stand apart in the source; their conditions may differ.

Experiments:
insulin receptor = assay: Brain insulin receptor extracellular domain immunolabel density; type: in vivo, rat; settings: old rats, two-week treatment
Description: Sections without primary antibodies were used as negative controls.
Insulin receptors' densities on random tissue sections, labeled with an antibody against the extracellular domain, are digitally recorded by placing an optical window on the cell and determining light intensity at a constant incident light Io.

[1] = system: pancreatic trypsin and amylase; assay: Digestive enzyme (trypsin, amylase) accumulation in the intestinal wall, whole mount co-labeling; type: in vivo, rat; settings: old rats, 14 days oral; villi tips and submucosa
Description: (§1) Small intestine: Full-thickness tissue blocks of the wall of the proximal jejunum (3×5 mm) were fixed from all sides in 10% formalin. Digestive enzymes were detected with primary and secondary antibodies labeled with 3, 3′-diaminobenzidine (DAB, Peroxidase Substrate Kit, ab64238, Abcam®).
To co-label the small intestine for mucin and trypsin, the fixed intestine was immersed in the primary antibody against trypsin and stained with DAB substrate. Thereafter the tissue section was embedded in resin and sectioned into thin (1 μm) sections. The mucin label (alcian blue), was applied to the thin section, coverslipped, and imaged.

[2] = Blood glucose level at tissue collection; type: in vivo, rat; settings: old rats, two-week treatment
Description: At the time of tissue collection, fresh femoral arterial blood was used to measure the blood glucose level (Contour®, Bayer® Diabetes Care, Tarrytown, NY) and the percent of glycated hemoglobin levels (AIC Home Test; Bristol-Myers Squibb®; NY, NY).

[3] = Effect of oral treatment on digestion / body weight; type: in vivo, rat; settings: old rats, temporary oral treatment in drinking water
Description: Male Wistar rats (Harlan Sprague Dawley Inc., Indianapolis, IN) at maturity (4 months, 300 to 350 gm) and at old age (24 months, 375 to 450 gm) were included in the study. The animals were maintained on standard laboratory chow (8604 Teklad rodent diet; Harlan Laboratories, Indianapolis, Ind) without restriction and water ad libitum and maintained in a separate room without pathogen-free conditions.

[4] = system: mucin layer on the epithelium of the small intestine; assay: Mucin layer density in small intestine (alcian blue); type: in vivo, rat; settings: old rats, 14 days oral, upper jejunum
Description: as §1
The mucin-containing layer on the epithelial cells of the small intestine was stained using alcian blue (pH 2.5, kt 003; Diagnostic BioSystems, Pleasanton, CA) followed by a rinse in distilled water and mounted on a microscope slide (Vector Mount AQ Aqueous Mounting Medium, Vector® Laboratories, Burlington, CA).

pancreatic trypsin = settings: old-treated rats (24 months, 14 days oral) compared with young
Description: A femoral venous catheter was placed after general anesthesia (pentobarbital sodium, 50 mg/kg [Abbott Laboratories, North Chicago, Il1], intramuscularly after local anesthesia [2% lidocaine HCl; Hospira, Inc, Lake Forrest, Il1]). Tissues (intestine, liver, lung, heart, kidney, brain, mesentery, skin) were immediately collected after euthanasia (Beuthanasia i.v., 120 mg/kg, Schering-Plough Animal Health Corp, Union, NJ), fixed (formalin, 10%, neutral buffered, 1 hr), postfixed (fresh formalin, 24 hrs), and stored (formalin, 10%). The period between initial anesthesia and fixation of the tissues was below 60 minutes. […]
Primary antibodies were diluted to 1-1.5 μl/1000 μl of phosphate-buffered saline. […] No counterstain was applied to facilitate quantitative label intensity measurements. […] For each tissue, the labeling procedures were standardized among the animal groups to permit a quantitative comparison of label densities between ages and treatment with digital image analysis.
Images of the immunolabel density were recorded at multiple magnifications (between 10× objective, numerical aperture 0.25, and 60×, numerical aperture 1.4). They were recorded under standard light conditions with fixed optical and digital camera settings (SPOT Insight® GIGABIT camera, Sterling Height) so that the camera serves as a quantitative light intensity meter without pixel intensity saturation. […]

## tranexamic acid [trypsin inhibitor]
Insulin receptor
  density of insulin receptor ectodomains in cerebral cortex: in part restored; also recorded: restored in part
[1]
  accumulation of trypsin and amylase in the intestinal wall: attenuated
[2]
  plasma/blood glucose level: mitigated; also recorded: restored in part
[3]
  attenuation of digestion, such as reduction of body weight: did not lead to a detectable attenuation of digestion
[4]
  mucin layer density on intestinal villi: partially restored; also recorded: restored in part
Pancreatic trypsin
  trypsin label density in the brain: almost reached the level in the young (no significant difference)
  trypsin label density in the mesentery: not different from the young
